In PubChem BioAssay AID330 (DTP/NCI, 2004):
Several values for one entry are separate records, joined by “and”; a condition that tells them apart may be missing. Equal values may be shown once. Toxic doses and inconclusive results are not listed. Rule for the calls: active = survival T/C of 150% or more; inactive = T/C below 125% in these data.

System: P388 leukemia ip, CD2F1 mice, survival T/C
Assay: NCI In Vivo Anticancer Drug Screen. Data for tumor model P388 Leukemia (intraperitoneal) in CD2F1 (CDF1) mice
Conditions: endpoint: median survival time, higher = longer survival
Summary of the method: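 Mice carrying the transplanted tumor received test compound or vehicle. Survival was recorded in each group, and the value is the treated-group measurement divided by that of the vehicle-treated control group.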

[1] = dose: 3.12 mg/kg/injection, schedule: Q01DX009 (ip), vehicle: saline
[2] = dose: 12.5 mg/kg/injection, schedule: Q01DX009 (ip), vehicle: saline
[3] = dose: 60.0 mg/kg/injection, schedule: Q01DX005 (ip), vehicle: saline with Tween-80
[4] = dose: 240.0 mg/kg/injection, schedule: Q01DX005 (ip), vehicle: saline with Tween-80
[5] = dose: 100.0 mg/kg/injection, schedule: Q01DX001 (ip), vehicle: Klucel (hydroxypropylcellulose) (HPC)
[6] = dose: 200.0 mg/kg/injection, schedule: Q01DX001 (ip), vehicle: Klucel (hydroxypropylcellulose) (HPC)
[7] = dose: 400.0 mg/kg/injection, schedule: Q01DX001 (ip), vehicle: Klucel (hydroxypropylcellulose) (HPC)
[8] = dose: 50.0 mg/kg/injection, schedule: Q01DX005 (ip), vehicle: saline with Tween-80
[9] = dose: 100.0 mg/kg/injection, schedule: Q01DX005 (ip), vehicle: saline with Tween-80
[10] = dose: 200.0 mg/kg/injection, schedule: Q01DX005 (ip), vehicle: saline with Tween-80
[11] = dose: 12.5 mg/kg/injection, schedule: Q01DX009 (ip), vehicle: Klucel (hydroxypropylcellulose) (HPC)
[12] = dose: 50.0 mg/kg/injection, schedule: Q01DX009 (ip), vehicle: Klucel (hydroxypropylcellulose) (HPC)
[13] = dose: 120.0 mg/kg/injection, schedule: Q01DX005 (ip), vehicle: saline with Tween-80

Measured: T/C

CN(C)c1ccc(N2C(N)=NC(N)=NC2(C)C)cc1
inactive: dose: 15.0 mg/kg/injection, schedule: Q01DX005 (ip), vehicle: saline 94 % of control | dose: 30.0 mg/kg/injection, schedule: Q01DX005 (ip), vehicle: saline 95 % of control | dose: 60.0 mg/kg/injection, schedule: Q01DX005 (ip), vehicle: saline 98 % of control and 95 % of control

O=C(O)CN1C(=O)C=CC1=O
inactive: [1] 90 % of control | dose: 6.25 mg/kg/injection, schedule: Q01DX009 (ip), vehicle: saline 101 % of control | [2] 101 % of control and 86 % of control

OC(c1cc2c(Cl)cc(Cl)cc2c2cc(C(F)(F)F)ccc12)C1CCCCN1 (stereo not given)
inactive: dose: 6.25 mg/kg/injection, schedule: Q01DX009 (ip), vehicle: saline with Tween-80 101 % of control | dose: 12.5 mg/kg/injection, schedule: Q01DX009 (ip), vehicle: saline with Tween-80 100 % of control | dose: 25.0 mg/kg/injection, schedule: Q01DX009 (ip), vehicle: saline with Tween-80 100 % of control

NCCc1ccc([N+](=O)[O-])cc1
inactive: dose: 50.0 mg/kg/injection, schedule: Q01DX009 (ip), vehicle: saline 104 % of control and 96 % of control | dose: 100.0 mg/kg/injection, schedule: Q01DX009 (ip), vehicle: saline 98 % of control and 105 % of control

COc1cc([C@@H]2c3cc4c(cc3C[C@@H]3COC(=O)C32)OCO4)cc(OC)c1O (stereo not given in full)
inactive: [3] 100 % of control and 120 % of control | [4] 107 % of control

COc1ccc(/C=C/C2=CC(=O)CC(/C=C/c3ccc(OC)c(OC)c3)C2)cc1OC (stereo not given)
inactive: [5] 89 % of control | [6] 100 % of control | [7] 97 % of control

CCN(CC)CCCC(C)NCCCN (stereo not given)
inactive: dose: 100.0 mg/kg/injection, schedule: Q04DX003 (ip), vehicle: saline 100 % of control | dose: 200.0 mg/kg/injection, schedule: Q04DX003 (ip), vehicle: saline 90 % of control

CC1=NN(C(=O)c2ccc(Cl)cc2)C(=O)C1N=Nc1ccc(S(=O)(=O)Nc2ncccn2)cc1 (stereo not given)
inactive: [8] 94 % of control | [9] 97 % of control | [10] 87 % of control

Cc1cc(NCc2ccccc2)cc(=O)[nH]1
inactive: dose: 100.0 mg/kg/injection, schedule: Q01DX001 (ip), vehicle: saline with Tween-80 95 % of control | dose: 200.0 mg/kg/injection, schedule: Q01DX001 (ip), vehicle: saline with Tween-80 89 % of control | dose: 400.0 mg/kg/injection, schedule: Q01DX001 (ip), vehicle: saline with Tween-80 87 % of control

O=[N+]([O-])c1ccc([O-])c([I+]c2ccccc2)c1
inactive: [11] 94 % of control | dose: 25.0 mg/kg/injection, schedule: Q01DX009 (ip), vehicle: Klucel (hydroxypropylcellulose) (HPC) 96 % of control | [12] 89 % of control and 94 % of control

CC(=O)O.CC(=O)O.CC(=O)O.CC(=O)O.[Rh].[Rh]
inactive: dose: 1.56 mg/kg/injection, schedule: Q01DX009 (ip), vehicle: Klucel (hydroxypropylcellulose) (HPC) 111 % of control | dose: 3.13 mg/kg/injection, schedule: Q01DX009 (ip), vehicle: Klucel (hydroxypropylcellulose) (HPC) 117 % of control | dose: 6.25 mg/kg/injection, schedule: Q01DX009 (ip), vehicle: Klucel (hydroxypropylcellulose) (HPC) 99 % of control | dose: 6.25 mg/kg/injection, schedule: Q04DX003 (ip), vehicle: saline 100 % of control | [11] 115 % of control | dose: 12.5 mg/kg/injection, schedule: Q04DX003 (ip), vehicle: saline 100 % of control | dose: 25.0 mg/kg/injection, schedule: Q04DX003 (ip), vehicle: saline 122 % of control

CCN(CC)CC.[CH-]1CCCCC1.[CH-]1CCCCC1.[CH-]1CCCCC1.[Cl-].[N-]=C=NC(=O)NC1CCCCC1.[Sn+4]
inactive: dose: 1.5 mg/kg/injection, schedule: Q01DX005 (ip), vehicle: Klucel (hydroxypropylcellulose) (HPC) 92 % of control | dose: 3.0 mg/kg/injection, schedule: Q01DX005 (ip), vehicle: Klucel (hydroxypropylcellulose) (HPC) 92 % of control | dose: 6.0 mg/kg/injection, schedule: Q01DX005 (ip), vehicle: Klucel (hydroxypropylcellulose) (HPC) 102 % of control and 92 % of control

CC1CCC(c2ccoc2)N2C1CCC(C)(Sc1ccccc1)C2O (stereo not given)
inactive: dose: 5.5 mg/kg/injection, schedule: Q01DX004 (ip), vehicle: DMSO 95 % of control | dose: 11.0 mg/kg/injection, schedule: Q01DX004 (ip), vehicle: DMSO 115 % of control | dose: 22.0 mg/kg/injection, schedule: Q01DX004 (ip), vehicle: DMSO 113 % of control | dose: 25.0 mg/kg/injection, schedule: Q01DX001 (ip), vehicle: other 103 % of control | dose: 44.0 mg/kg/injection, schedule: Q01DX004 (ip), vehicle: DMSO 105 % of control | dose: 50.0 mg/kg/injection, schedule: Q01DX001 (ip), vehicle: other 98 % of control | dose: 100.0 mg/kg/injection, schedule: Q01DX001 (ip), vehicle: other 98 % of control

CC1CCCC(C2CC3CCCCC3C(N)[N-]2)[N-]1.CC1CCCC(C2CC3CCCCC3C(N)[N-]2)[N-]1.O=[N+]([O-])O.[Cu+] (stereo not given)
inactive: dose: 25.0 mg/kg/injection, schedule: Q04DX002 (ip), vehicle: suspension in saline 93 % of control | dose: 50.0 mg/kg/injection, schedule: Q04DX002 (ip), vehicle: suspension in saline 97 % of control | dose: 100.0 mg/kg/injection, schedule: Q04DX002 (ip), vehicle: suspension in saline 99 % of control and 97 % of control | dose: 200.0 mg/kg/injection, schedule: Q04DX002 (ip), vehicle: suspension in saline 96 % of control

O=C(CCn1[nH]c(=O)c(Cl)c(Cl)c1=O)NNc1ccc([N+](=O)[O-])cc1[N+](=O)[O-]
inactive: [8] 92 % of control | [9] 103 % of control | [10] 92 % of control

COC(=O)Cc1nc2ccccc2s1
inactive: [3] 102 % of control | [13] 104 % of control | [4] 103 % of control

Cc1ccnc(NCc2ccccn2)c1
inactive: [8] 105 % of control | [9] 102 % of control

CSCCC([NH-])C(=O)O.CSCCC([NH-])C(=O)O.[Ni+2] (stereo not given)
inactive: dose: 0.79 mg/kg/injection, schedule: Q01DX009 (ip), vehicle: saline 92 % of control | dose: 1.56 mg/kg/injection, schedule: Q01DX009 (ip), vehicle: saline 96 % of control | [1] 97 % of control | [2] 94 % of control

COc1ccc(C(=O)CC2(O)C(=O)Nc3ccccc32)cc1 (stereo not given)
inactive: [12] 100 % of control | dose: 100.0 mg/kg/injection, schedule: Q01DX009 (ip), vehicle: Klucel (hydroxypropylcellulose) (HPC) 102 % of control | dose: 200.0 mg/kg/injection, schedule: Q01DX009 (ip), vehicle: Klucel (hydroxypropylcellulose) (HPC) 100 % of control

Nc1ccc(/C=C/c2ccc3cccnc3c2)cc1
inactive: dose: 12.5 mg/kg/injection, schedule: Q01DX009 (ip), vehicle: DMSO 108 % of control | dose: 25.0 mg/kg/injection, schedule: Q01DX009 (ip), vehicle: DMSO 97 % of control | dose: 50.0 mg/kg/injection, schedule: Q01DX009 (ip), vehicle: DMSO 101 % of control

COc1cccc(OC)c1OC(=O)Nc1ccccc1F
inactive: [3] 102 % of control | [13] 105 % of control | [4] 102 % of control

CN(C)c1ccc(C(=O)C2(Cl)CCCC(C)(C)C2)cc1 (stereo not given)
inactive: dose: 100.0 mg/kg/injection, schedule: Q04DX002 (ip), vehicle: Klucel (hydroxypropylcellulose) (HPC) 102 % of control | dose: 200.0 mg/kg/injection, schedule: Q04DX002 (ip), vehicle: Klucel (hydroxypropylcellulose) (HPC) 99 % of control | dose: 400.0 mg/kg/injection, schedule: Q04DX002 (ip), vehicle: Klucel (hydroxypropylcellulose) (HPC) 94 % of control

c1ccc(-c2cn3c(n2)SCC3)cc1
inactive: [5] 106 % of control | [6] 106 % of control | [7] 111 % of control
